Laboratory results taken from patent US20160130443A1, “PHTHALOCYANINE DYE USED FOR COLOR FILTER OF A LCD” (DOW GLOBAL TECHNOLOGIES LLC, priority 2013, published 2016).

Tests used:
Assay type in all cases: physicochemical
[1] = Solubility of dye in organic solvent at 25° C.
[2] = Thermal stability of films (chromaticity difference before and after hard baking); conditions: for Thermal stability of a film at 230° C. (ΔEab): film with acrylic resin baked at 230° C. under air for 1 hour, smaller = better heat resistance; for Thermal stability (in words): summary referring to Table 1
Protocol: The obtained dry film was baked at 230° C. under air for 1 hour to evaluate thermal stability of the film. Optical performance before and after baking (ΔEab value) was 1.6. A smaller ΔEab value indicates better heat resistance.
(4) Thermal Stability of Films (Chromaticity):
The wet film after spin coating is dried in oven at 90° C. for 30 minutes and then soft baked at 150° C. for 15 minutes. The chromaticity coordinates (L, a, b) are recorded with UltraScan Pro (Hunterlab) colorimeter. D65 light source is used and results are based on CIE Lab coordinates. After that the film is hard baked at target temperature (230° C.) for 1 hour and the new chromaticity coordinates (L′, a′, b′) are recorded with the method above. The thermal stability of a film is indicated by the difference of chromaticity coordinate before and after hard baking represented by the following formula;
ΔE=√{square root over ((L−L′)^2+(a−a′)^2+(b−b′)^2)}

[3] = Thermal stability of dyes (mass loss measured by TGA); conditions: air atmosphere
Protocol: (1) Thermal Stability of Dyes (Mass Loss Measured by TGA):
The thermal stability of dye itself was determined by the mass loss of dye measured by TGA under air atmosphere at 230° C. for 1 hour. This evaluation reflects chemical stability of the dye itself

For CNc1ccc(Nc2cccc(C)c2)c2c1C(=O)c1ccccc1C2=O [compound 1, C.I. solvent blue 63], the “Solubility in PGMEA at 25° C. (wt %)” value [1] was 1.23 wt %, the “Solubility in cyclohexanone at 25° C. (wt %)” value [1] was 3.0 wt % and the “Thermal stability of a film at 230° C. (ΔEab)” value (“Thermal stability … (ΔEab)” for short) [2] was 18.4. The “Thermal stability (in words)” value [2] was “very poor thermal stability” and the “Mass loss measured by TGA at 230° C. for 1 hour (%)” value (“Mass loss measured by TGA … (%)” for short) [3] was 14.04%.

In the case of CCCCOc1ccc(OCCCC)c2c1-c1nc-2nc2[nH]c(nc3nc(nc4[nH]c(n1)c1c(OCCCC)ccc(OCCCC)c41)-c1c(OCCCC)ccc(OCCCC)c1-3)c1c(OCCCC)ccc(OCCCC)c21 [compound 3], the “Solubility in PGMEA at 25° C. (wt %)” value [1] is reported as 0.17 wt %, the “Solubility in cyclohexanone at 25° C. (wt %)” value [1] is reported as 9.0 wt % and the “Thermal stability … (ΔEab)” value [2] is reported as 21.5. For the same compound, the “Thermal stability (in words)” value [2] was “very poor thermal stability” and the “Mass loss measured by TGA … (%)” value [3] was 13.08%.

For c1ccc2c(c1)C1=Nc3c4ccccc4c4[n]3[Cu-2]35[n]6c(c7ccccc7c6=NC6=[N+]3C(=N4)c3ccccc36)=NC2=[N+]15 [compound 4], the “Solubility in PGMEA at 25° C. (wt %)” value [1] was “insoluble”, the “Solubility in cyclohexanone at 25° C. (wt %)” value [1] was “insoluble” and the “Solubility in cyclohexanone and PGMEA (in words)” value ([1]; summary referring to Table 1) was “insoluble”. The “Mass loss measured by TGA … (%)” value [3] was 0.02%.

For C.I. disperse red 343 [compound 2], the “Solubility in PGMEA at 25° C. (wt %)” value [1] was 1.98 wt %, the “Solubility in cyclohexanone at 25° C. (wt %)” value [1] was 4.0 wt % and the “Thermal stability … (ΔEab)” value [2] was 13.3. The “Thermal stability (in words)” value [2] was “very poor thermal stability” and the “Mass loss measured by TGA … (%)” value [3] was 9.56%.
